{
  "source": "patent US20070093436A1",
  "about": "“Drop1, a novel marker for carcinogenesis” (Deutsches Kresforschungszentrum Stiftung Des Offentlichen …, priority 2003, published 2007)",
  "assay_type_in_all_cases": "cell-based, human",
  "key": {"[1]": {"test_system": "Drop1 mRNA in cell lines exhibiting a low level of Drop1 (GG and M130)", "experiment": "Treatment of cell lines exhibiting a low level of Drop1 with demethylating agents", "protocol": "(§1) Treatment of cells with methyltransferase inhibitors was carried out as described by Widschwendter et al., J. Nat. Cancer Inst. 92 (2000), 826-832). All-trans-retinoic acid (ATRA) and 5-aza-deoxycytidine (Aza-CdR) were from Sigma Chemical Co. (St. Louis, Mo.). 1 mM solutions were prepared in dimethyl sulfoxide and diluted in culture medium. Cells were incubated either for 5 days, with […] Aza-CdR, for 24 h with […], or for 5 days with […] Aza-CdR followed by 24 h with 1 mM ATRA, or left untreated. They were detached with trypsin (0.05%)-EDTA (0.02%) in Dulbecco's phosphate-buffered saline (PBS), washed, and pelleted.\n(§2) The possibility that promoter methylation might downregulate Drop1 was investigated."}, "[2]": {"test_system": "Drop1 expression in M130 cells", "experiment": "Treatment of cells with methyltransferase inhibitors, Drop1 expression by quantitative PCR", "protocol": "(§3) The differential expression was validated by quantitative PCR and analyzed in the Agilent 2100 Bioanalyzer (Agilent Technologies, Waldbronn, Germany, PC Hewlett packard, Vectra VL, Hewlett packard, Boeblingen; Software Agilent 2100 Bio Sizing 1.3, Agilent Technologies, Waldbronn) or by semi-quantitative analysis of the resulting cDNA on a 2% agarose gel.\n(§4) • 1 μl cDNA of the 20 μl RT-mixture (corresponding to 0.5 ng of cDNA); • 1 μl Drop1 Upper primer (5′ […] ATA 3′ corresponding to positions 8255-8278 in exon 53), 20 μM; • 1 μl Drop1 Lower primer (Lower primer 5′ […] 3′, complementary to positions 8500-8473 in exon 55), 20 μM; • 5 μl cDNA-PCR reaction buffer, 10×; • 1 μl dNTP-Mix, 10 mM; • 1 μl advantage-cDNA-polymerase mix, 50×;\n(§5) Steps 1 to 3 were repeated 34 to 46 times. After individual cycles in that range, aliquots were removed and run on a gel. The amount of PCR-product from the first cycle producing a visible band of 246 bp was then quantitated using the Agilent system and an intercalating dye to detect double-stranded DNA. Under these conditions, quantitative PCR detected Drop1 plus enaptin, yet not cpg2, and the various nexins.\nas §1, §2"}, "[3]": {"test_system": "Drop1 expression in SKOV-3 cells", "experiment": "Treatment of cells with methyltransferase inhibitors, Drop1 expression by quantitative PCR", "protocol": "as §3, §4, §5, §1, §2"}, "[4]": {"test_system": "Drop1 expression in GG cells", "experiment": "Treatment of cells with methyltransferase inhibitors, Drop1 expression by quantitative PCR", "protocol": "as §3, §4, §5, §1, §2"}, "[5]": {"conditions": "5 days 2.5 mM Aza-CdR, 24 h 1 mM ATRA, or 5 days Aza-CdR followed by 24 h ATRA"}},
  "data": [
    {"smiles": "CC1=C(/C=C/C(C)=C/C=C/C(C)=C/C(=O)O)C(C)(C)CCC1", "note": "[ATRA, all-trans-retinoic acid]", "values": [
      {"measurement": "Increase of Drop1 mRNA", "setting": "[1]", "value": "an order of magnitude"},
      {"measurement": "Increase of Drop1 expression versus cells in medium", "setting": "[2]", "value": 18, "unit": "fold"},
      {"measurement": "Expression of downregulated Drop1 in cells treated with inhibitors of gene methylation", "setting": "[2]; [5]", "value": "1.8 × 10^−2"},
      {"measurement": "Increase of Drop1 expression", "setting": "[3]; SKOV-3, a cell line with a physiological level of Drop1", "value": "No increase of expression"},
      {"measurement": "Expression of downregulated Drop1 in cells treated with inhibitors of gene methylation", "setting": "[3]; SKOV-3 cells, 5 days 2.5 mM Aza-CdR, 24 h 1 mM ATRA, or 5 days Aza-CdR followed by 24 h ATRA", "value": "2.2 × 10^−4"},
      {"measurement": "Increase of Drop1 expression versus cells in medium", "setting": "[4]", "value": 2.5, "unit": "fold"},
      {"measurement": "Expression of downregulated Drop1 in cells treated with inhibitors of gene methylation", "setting": "[4]; [5]", "value": "1.3 × 10^−4"}
    ]}
  ]
}
